Laboratory results: patent publication US20100331248A1, “COMPOSITIONS AND METHODS FOR TREATING DIABETES USING LISOFYLLINE AND ISLET NEOGENESIS ASSOCIATED PEPTIDE” (DIAKINE THERAPEUTICS, INC., priority 2008, published 2010)
“Also recorded” adds a separate entry of the source. Where two headings read alike, the source gives them in different places. Ends that are not written are not given here.

Experiments:
[1] = test system: NOD mice with spontaneous diabetes; assay: Therapy regimen of LSF and INGAP in spontaneously diabetic NOD mice maintained on insulin pellets; format: in vivo; conditions: for blood glucose levels (non-fasting) at the end of treatments: FIG. 3, diabetic NOD mice, LSF 27 mg/kg/day continuous sc infusion, INGAP 500 μg qd ip; for remission rate of diabetes: FIG. 5, diabetic NOD mice observed after all therapy stopped
Method: The following example illustrates a therapy regimen (FIG. 1) involving INGAP peptide and LSF for building and preserving β-cell mass and increasing insulin production in a mammal. NOD mice were monitored for diabetes by measuring blood glucose levels. Mice were allowed to develop spontaneous diabetes, which usually occurs around the age of 18 weeks. Non-fasting blood glucose levels >250 mg/dL measured for 3 different days was considered evidence of diabetes onset. Shortly after diagnosing diabetes, the NOD mice received an insulin pellet implanted subcutaneously in order to maintain them during the treatment period of 6 to 7 weeks. The pellet provides 0.1 U/d of bovine insulin. The mice were then assigned to one of 5 treatment groups: Group 1—Normal saline via continuous subcutaneous infusion (placebo). The saline was delivered via an implantable subcutaneous osmotic mini-pump. The mice received the placebo for 4 weeks and continued on insulin for another 2 weeks. The insulin was then stopped, and the mice observed to determine if the treatment was effective. Group 2—LSF (27 mg/kg/day via continuous subcutaneous infusion) alone. The LSF was delivered via an implantable subcutaneous osmotic mini-pump. The mice received LSF for 4 weeks, continued on insulin for another 2 weeks, and then observed to determine if the treatment was effective. Group 3—INGAP (500 μg qd ip) alone. The mice received INGAP and insulin for 6 weeks, the treatment was then stopped, and the mice observed to determine if the treatment was effective. Group 4—LSF (27 mg/kg/day via continuous subcutaneous infusion) plus INGAP (500 μg qd ip) administered concomitantly. The LSF was delivered via an implantable subcutaneous osmotic mini-pump. The mice received LSF for 4 weeks and INGAP and insulin for 6 weeks. The treatments were then stopped and the mice observed to determine if the treatment was effective. Group 5—LSF (27 mg/kg/day via continuous subcutaneous infusion) for a week of pretreatment as monotherapy. Here the immune system was first treated to ‘cool it off’ so that any new islets would be growing in a less hostile environment. INGAP was then added to the treatment regimen (at 500 μg qd ip) and administered concomitantly with the LSF for an additional 5 weeks. LSF treatment was discontinued at week 6. INGAP and Insulin were continued for 1 more week until week 7. All therapy was then discontinued and the mice observed to determine if the treatment was effective. See treatment timeline depicted in FIG. 2.

[2] = cited from earlier work
[3] = test system: non-obese diabetic (NOD) mice; conditions: LSF alone, when hyperglycemia became detectable; cited from earlier work
[4] = test system: streptozotocin-induced diabetic mice; conditions: cited from earlier work

Compound: C[C@@H](O)CCCCn1c(=O)c2c(ncn2C)n(C)c1=O [LSF, 1-(5-R-hydroxyhexyl)-3,7-dimethylxanthine]
- blood glucose levels (non-fasting) at the end of treatments [1]: little or no effect
- remission rate of diabetes [1]: no remission; also recorded: No mice
- safety in clinical studies ([2]; clinical studies, open IND on file with FDA): safe
- reversal of autoimmune diabetes [3]: did not reverse

Compound: IGLHDPSHGTLPNGS [INGAP]
- effect on islet formation and glycemia [4]: restore euglycemia
- blood glucose levels (non-fasting) at the end of treatments [1]: little or no effect
- remission rate of diabetes [1]: 10%
- insulin production of treated animals ([1]; FIG. 15): producing insulin
- safety in clinical studies ([2]; in vivo): safe
